How the values were obtained:
LLC-PK1 cells [1] = experiment: Protective effect against cisplatin nephrotoxicity, cell viability (CCK-8); assay type: cell-based; settings: for effect on cell viability that had been reduced with cisplatin: 25 μM cisplatin, LLC-PK1, concentration-dependent; for viability at 5 µg/mL / viability at 10 µg/mL / viability at 25 µg/mL / viability at 50 µg/mL / viability at 100 µg/mL / viability at 10 µM: Sus scrofa, LLC-PK1
Description: First, LLC-PK1 cells were cultured in a Dulbecco's modified Eagle's medium (DMEM) (available from Cellgro, Manassas, Va., USA) in which 10% of fetal bovine serum (FBS), 100 units/mL of penicillin G, and 100 μg/mL of streptomycin were added, in an incubator (95% air and 5% CO2) maintained at about 37° C. The used FBS, penicillin G, and streptomycin were purchased from Gibco BRL Life Technologies Inc. The cultured LLC-PK1 cells were dispensed in a 96-well plate at a density of 1×10^4 cells in 100 μL of the same DMEM medium per each well and then stabilized for about 22 hours.
After 1 hour, absorbance at a detection wavelength of 450 nm was measured using a BIO-TEK microplate reader (available from Winooski, Vt., USA) to thereby measure cell viability.

LLC-PK1 cells [2] = experiment: Image-based cell analysis of apoptosis (Annexin V / PI, Tali cytometer); settings: for Apoptosis (%): 2 h pre-incubation, then 25 μM cisplatin for 24 h, LLC-PK1
Description: The cultured LLC-PK1 cells in DMEM were dispensed in a 6-well plate at a density of 4×10^5 cells in 3 mL of the same DMEM medium per each well and then incubated under the same conditions for 24 hours to stabilize the cells.
After incubation under the same conditions for about 24 hours, the cells were collected using trypsin, washed once with phosphate-buffered saline (PBS), resuspended in 100 μL of annexin-binding buffer ([…], 140 mM NaCl, […], pH 7.4) to reach a cell number of about 5×10^5 to about 5×10^6 cells/mL, and then mixed with 5 μL of Annexin V Alexa Fluor 488 and left in the dark at room temperature for about 20 minutes to fix and stain the cells. The resulting cell suspension was centrifuged to discard the supernatant and collect precipitated cell pellets. The precipitated cell pellets were resuspended in 100 μL of annexin-binding buffer to obtain a resuspension.
Next, 1 μL of propidium iodide (PI) was added to the resuspension, mixed thoroughly, and then left in the dark at room temperature for about 1 minute to about 5 minutes to fix and stain the cells. The stained cells were analyzed using a Tali Image-based cytometer and TaliPCApp (version 1.0) software.
Cells were divided into live cells (annexin V-negative/PI-negative), early apoptotic cells (annexin V-positive/PI-negative), and late apoptotic or necrotic cells (annexin V-positive/PI-positive), and total apoptotic cells were expressed as a ratio of annexin V-positive cells to PI-negative or PI-positive cells.

| SMILES | effect on cell viability that had been reduced with cisplatin (LLC-PK1 cells [1]) | viability at 5 µg/mL (LLC-PK1 cells [1]) | viability at 10 µg/mL (LLC-PK1 cells [1]) | viability at 25 µg/mL (LLC-PK1 cells [1]) | viability at 50 µg/mL (LLC-PK1 cells [1]) | viability at 100 µg/mL (LLC-PK1 cells [1]) | viability at 10 µM (LLC-PK1 cells [1]) | apoptosis of the LLC-PK1 cells caused by cisplatin (LLC-PK1 cells [2]; 5 μM and 10 μM, 25 μM cisplatin) | Apoptosis (%) (LLC-PK1 cells [2]; 5 μM) | Apoptosis (%) (LLC-PK1 cells [2]; 10 μM) |
| --- | --- | --- | --- | --- | --- | --- | --- | --- | --- | --- |
| Oc1cccc2c(-c3ccc(O)c4c(O)cccc34)ccc(O)c12 [BNT, 1,1′-binaphthalene-4,4′,5,5′-tetrol] | significantly increase cell viability | 63.3% | 65.1% | 65.4% | 71.5% | 75.1% |  |  |  |  |
| O=C1CC2C(=C3c4c2ccc(O)c4[C@@H](O)C[C@@H]3O)c2cccc(O)c21 (some centres unmarked) [Hypoxylonol C] | significantly increase cell viability | 76.9% | 86.6% | 89.3% | 89.5% | 92.5% | ≥ 85% |  |  |  |
| O=C1CC2C(=C3c4c2ccc(O)c4[C@H](O)C[C@@H]3O)c2cccc(O)c21 (some centres unmarked) [Hypoxylonol F] | significantly increase cell viability | 86.4% | 90.9% | 92.2% | 92.3% | 94.4% | ≥ 90% | significantly reduced | 26.3% | 6.6% |

— patent US10933033B2, “Composition for preventing or reducing nephrotoxicity and use thereof” (KOREA INSTITUTE OF SCIENCE AND TECHNOLOGY, priority 2018, dated 2021)
